Results: patent US20240262819A1, “NOVEL COMPOUNDS HAVING INHIBITORY ACTIVITY AGAINST GLUCOSYLCERAMIDE SYNTHASE OR PHARMACEUTICALLY ACCEPTABLE SALT THEREOF, PROCESSES FOR PREPARING THE SAME, AND PHARMACEUTICAL COMPOSITIONS COMPRISING THE SAME” (YUHAN CORPORATION, priority 2021, published 2024)
Where two headings read alike, the source gives them in different places.

What was measured:
[1] = target: glucosylceramide synthase (GCS) (Homo sapiens (Human), UniProt Q16739); test: Evaluation of inhibitory activities against GCS (A549 cell lysate, NBD C6-ceramide, HPLC); format: biochemical
Sequence of glucosylceramide synthase (GCS) (Q16739 whole entry): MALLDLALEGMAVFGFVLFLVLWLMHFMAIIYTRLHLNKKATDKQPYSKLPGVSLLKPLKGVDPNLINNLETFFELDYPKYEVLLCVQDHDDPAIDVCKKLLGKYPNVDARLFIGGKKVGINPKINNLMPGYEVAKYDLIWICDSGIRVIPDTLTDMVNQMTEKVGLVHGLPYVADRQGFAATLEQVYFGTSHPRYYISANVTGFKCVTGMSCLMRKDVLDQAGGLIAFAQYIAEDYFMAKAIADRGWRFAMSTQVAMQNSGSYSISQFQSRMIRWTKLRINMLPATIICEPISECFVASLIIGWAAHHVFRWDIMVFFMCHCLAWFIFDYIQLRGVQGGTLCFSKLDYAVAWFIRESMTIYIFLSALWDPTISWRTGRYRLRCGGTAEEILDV
Description: The inhibitory activities of the compounds of the present invention against GCS were evaluated, as follows, according to the method described in the known literature (Hayashi Y et al., A sensitive and reproducible assay to measure the activity of glucosylceramide synthase and lactosylceramide synthase using HPLC and fluorescent substrates, Analytical Biochemistry 345 (2005) 181-186). Ibiglustat, known as a GCS inhibitor, was used as a control.
After the cells attached to the culture dish were washed with phosphate buffered saline (PBS), the cells were scraped off with a cell scraper and then centrifuged (4000 rpm, 3 min, 4 °C) to collect the cells in a 50 ml tube. The cell pellets were suspended in a lysis buffer (50 mM HEPES, pH 7.3, containing 1× the protease/phosphatase inhibitor cocktail), lysed by sonication, and then the lysate was centrifuged (13000 rpm, 10 min, 4° C.). The obtained supernatant was used for the quantitative analysis of proteins. The amount of proteins was measured using the BCA protein assay kit, using bovine serum albumin as a standard.
Enzymatic reactions were initiated by sequentially adding the following reaction materials to a 96 deep-well plate. Thereafter, the enzymatic reactions were performed at 37° C. for 90 minutes.
The enzymatic reactions were stopped by adding 100 μl of chloroform/methanol (2:1, v/v). […] The lower layer (50 μl) was transferred to a new 96 deep-well plate and dried with a reduced concentrator.
Lipids were dissolved in 100 μl of isopropyl alcohol/n-hexane/H2O (55:44:1, v/v/v) and then transferred to a glass vial for HPLC (Agilent, 8004-HP-H/i3u). The sample (100 μl) was automatically loaded onto a normal-phase column (Intersil SIL 150A-5, 4.6×250 mm, GL Sciences, Japan) and then eluted at a flow rate of 2.0 ml/min with isopropyl alcohol/n-hexane/H2O (55:44:1, v/v/v). The fluorescence thereof was measured with a fluorescence detector (Agilent, 1260 FLD Spectra), using 470 nm and 530 nm as excitation and emission wavelengths, respectively.
Data analysis was performed by the following equations.
% Area (Sample)=Area (GlcCer)/[Area (Cer)+Area (GlcCer)]×100%
GCS activity=[Area (Sample)−Area (ibiglustat)]/[Area (DMSO)−Area (ibiglustat)]×100
The obtained % GCS activity data was analyzed with the software GraphPad Prism (Ver 5.01) to calculate the IC50 values.

[2] = test system: GM1 production in Jurkat cells; test: cells; format: cell-based
[3] = % GCS activity, A549 cell lysate, 37° C. for 90 minutes, read-out: IC50

SMILES | IC50 [1] | IC50 ([2]; Homo sapiens, Jurkat, 72 h) | IC50 [1, 3] | IC50 ([2]; read-out: IC50)
CCCCc1ccc(-c2cc3c(cc2C)[C@H](NC(=O)O[C@@H]2CN4CCC2CC4)C(C)(C)C3)cc1 [Example 118, (S)-quinuclidin-3-yl((R)-5-(4-butylphenyl)-2,2,6-trimethyl-2,3-dihydro-1H-inden-1-yl)carbamate] | 0.2 nM | 1.55 nM | – | –
Cc1cc2c(cc1-c1ccc(CC(C)C)cc1)CC(C)(C)[C@H]2NC(=O)O[C@@H]1CN2CCC1CC2 [Example 119, (S)-quinuclidin-3-yl((R)-5-(4-isobutylphenyl)-2,2,6-trimethyl-2,3-dihydro-1H-inden-1-yl)carbamate] | 0.23 nM | 4.95 nM | – | –
CCOc1ccc(-c2cc3c(cc2C)[C@H](NC(=O)O[C@@H]2CN4CCC2CC4)C(C)(C)C3)cc1 [Example 120, (S)-quinuclidin-3-yl((R)-5-(4-ethoxyphenyl)-2,2,6-trimethyl-2,3-dihydro-1H-inden-1-yl)carbamate] | 0.31 nM | 7.66 nM | – | –
CCCOc1ccc(-c2cc3c(cc2C)[C@H](NC(=O)O[C@@H]2CN4CCC2CC4)C(C)(C)C3)cc1 [Example 121, (S)-quinuclidin-3-yl((R)-2,2,6-trimethyl-5-(4-propoxyphenyl)-2,3-dihydro-1H-inden-1-yl)carbamate] | 0.28 nM | 2.79 nM | – | –
Cc1cc2c(cc1-c1ccc(OC(C)C)cc1)CC(C)(C)[C@H]2NC(=O)O[C@@H]1CN2CCC1CC2 [Example 122, (S)-quinuclidin-3-yl((R)-5-(4-isopropoxyphenyl)-2,2,6-trimethyl-2,3-dihydro-1H-inden-1-yl)carbamate] | 0.34 nM | 3.66 nM | – | –
CCCCOc1ccc(-c2cc3c(cc2C)[C@H](NC(=O)O[C@@H]2CN4CCC2CC4)C(C)(C)C3)cc1 [Example 123, (S)-quinuclidin-3-yl((R)-5-(4-butoxyphenyl)-2,2,6-trimethyl-2,3-dihydro-1H-inden-1-yl)carbamate] | 0.24 nM | 1.26 nM | – | –
Cc1cc2c(cc1-c1ccc(OCC(C)C)cc1)CC(C)(C)[C@H]2NC(=O)O[C@@H]1CN2CCC1CC2 [Example 124, (S)-quinuclidin-3-yl((R)-5-(4-isobutoxyphenyl)-2,2,6-trimethyl-2,3-dihydro-1H-inden-1-yl)carbamate] | 0.2 nM | 1.13 nM | – | –
Cc1cc2c(cc1-c1ccc(OC(C)C)c(Cl)c1)CC(C)(C)[C@H]2NC(=O)O[C@@H]1CN2CCC1CC2 [Example 125, (S)-quinuclidin-3-yl((R)-5-(3-chloro-4-isopropoxyphenyl)-2,2,6-trimethyl-2,3-dihydro-1H-inden-1-yl)carbamate] | 2.17 nM | 10.8 nM | – | –
COc1ccc(-c2cc3c(cc2C)[C@H](NC(=O)O[C@@H]2CN4CCC2CC4)C(C)(C)C3)c(F)c1 [Example 126, (S)-quinuclidin-3-yl((R)-5-(2-fluoro-4-methoxyphenyl)-2,2,6-trimethyl-2,3-dihydro-1H-inden-1-yl)carbamate] | 1.48 nM | 18 nM | – | –
CCOc1cc2c(cc1-c1ccc(CC)cc1)CC(C)(C)[C@H]2NC(=O)O[C@@H]1CN2CCC1CC2 [Example 127, (S)-quinuclidin-3-yl((R)-6-ethoxy-5-(4-ethylphenyl)-2,2-dimethyl-2,3-dihydro-1H-inden-1-yl)carbamate] | 1.82 nM | 8.02 nM | – | –
CCCc1ccc(-c2cc3c(cc2OCC)[C@H](NC(=O)O[C@@H]2CN4CCC2CC4)C(C)(C)C3)cc1 [Example 128, (S)-quinuclidin-3-yl((R)-6-ethoxy-2,2-dimethyl-5-(4-propylphenyl)-2,3-dihydro-1H-inden-1-yl)carbamate] | 1.8 nM | 6.49 nM | – | –
CCOc1cc2c(cc1-c1ccc(C(C)C)cc1)CC(C)(C)[C@H]2NC(=O)O[C@@H]1CN2CCC1CC2 [Example 129, (S)-quinuclidin-3-yl((R)-6-ethoxy-5-(4-isopropylphenyl)-2,2-dimethyl-2,3-dihydro-1H-inden-1-yl)carbamate] | 2.31 nM | 8.11 nM | – | –
CCCCc1ccc(-c2cc3c(cc2OCC)[C@H](NC(=O)O[C@@H]2CN4CCC2CC4)C(C)(C)C3)cc1 [Example 130, (S)-quinuclidin-3-yl((R)-5-(4-butylphenyl)-6-ethoxy-2,2-dimethyl-2,3-dihydro-1H-inden-1-yl)carbamate] | 0.75 nM | 1.53 nM | – | –
CCOc1cc2c(cc1-c1ccc(CC(C)C)cc1)CC(C)(C)[C@H]2NC(=O)O[C@@H]1CN2CCC1CC2 [Example 131, (S)-quinuclidin-3-yl((R)-6-ethoxy-5-(4-isobutylphenyl)-2,2-dimethyl-2,3-dihydro-1H-inden-1-yl)carbamate] | 2.01 nM | 6.47 nM | – | –
CCOc1ccc(-c2cc3c(cc2OCC)[C@H](NC(=O)O[C@@H]2CN4CCC2CC4)C(C)(C)C3)cc1 [Example 132, (S)-quinuclidin-3-yl((R)-6-ethoxy-5-(4-ethoxyphenyl)-2,2-dimethyl-2,3-dihydro-1H-inden-1-yl)carbamate] | 1.6 nM | 7.62 nM | – | –
CCCOc1ccc(-c2cc3c(cc2OCC)[C@H](NC(=O)O[C@@H]2CN4CCC2CC4)C(C)(C)C3)cc1 [Example 133, (S)-quinuclidin-3-yl((R)-6-ethoxy-2,2-dimethyl-5-(4-propoxyphenyl)-2,3-dihydro-1H-inden-1-yl) carbamate] | – | – | 0.5 nM | 2.63 nM
CCOc1cc2c(cc1-c1ccc(OC(C)C)cc1)CC(C)(C)[C@H]2NC(=O)O[C@@H]1CN2CCC1CC2 [Example 134, (S)-quinuclidin-3-yl((R)-6-ethoxy-5-(4-isopropoxyphenyl)-2,2-dimethyl-2,3-dihydro-1H-inden-1-yl)carbamate] | 0.71 nM | 3.8 nM | – | –
CCCCOc1ccc(-c2cc3c(cc2OCC)[C@H](NC(=O)O[C@@H]2CN4CCC2CC4)C(C)(C)C3)cc1 [Example 135, (S)-quinuclidin-3-yl((R)-5-(4-butoxyphenyl)-6-ethoxy-2,2-dimethyl-2,3-dihydro-1H-inden-1-yl)carbamate] | 0.51 nM | 1.46 nM | – | –
CCOc1cc2c(cc1-c1ccc(OCC(C)C)cc1)CC(C)(C)[C@H]2NC(=O)O[C@@H]1CN2CCC1CC2 [Example 136, (S)-quinuclidin-3-yl((R)-6-ethoxy-5-(4-isobutoxyphenyl)-2,2-dimethyl-2,3-dihydro-1H-inden-1-yl)carbamate] | 0.41 nM | 0.87 nM | – | –
CCOc1cc2c(cc1-c1ccc(OC(C)C)c(Cl)c1)CC(C)(C)[C@H]2NC(=O)O[C@@H]1CN2CCC1CC2 [Example 137, (S)-quinuclidin-3-yl((R)-5-(3-chloro-4-isopropoxyphenyl)-6-ethoxy-2,2-dimethyl-2,3-dihydro-1H-inden-1-yl)carbamate] | 3.04 nM | 12.8 nM | – | –
CCOc1cc2c(cc1-c1ccc(OC)cc1F)CC(C)(C)[C@H]2NC(=O)O[C@@H]1CN2CCC1CC2 [Example 138, (S)-quinuclidin-3-yl((R)-6-ethoxy-5-(2-fluoro-4-methoxyphenyl)-2,2-dimethyl-2,3-dihydro-1H-inden-1-yl)carbamate] | 1.87 nM | 28 nM | – | –
CCc1ccc(-c2ccc3c(c2)CCC(C)(C)[C@H]3NC(=O)O[C@@H]2CN3CCC2CC3)cc1 [Example 139, (S)-quinuclidin-3-yl((R)-6-(4-ethylphenyl)-2,2-dimethyl-1,2,3,4-tetrahydronaphthalen-1-yl)carbamate] | 0.26 nM | 3.01 nM | – | –
CCCc1ccc(-c2ccc3c(c2)CCC(C)(C)[C@H]3NC(=O)O[C@@H]2CN3CCC2CC3)cc1 [Example 140, (S)-quinuclidin-3-yl((R)-2,2-dimethyl-6-(4-propylphenyl)-1,2,3,4-tetrahydronaphthalen-1-yl)carbamate] | 0.29 nM | 2.5 nM | – | –
CC(C)c1ccc(-c2ccc3c(c2)CCC(C)(C)[C@H]3NC(=O)O[C@@H]2CN3CCC2CC3)cc1 [Example 141, (S)-quinuclidin-3-yl((R)-6-(4-isopropylphenyl)-2,2-dimethyl-1,2,3,4-tetrahydronaphthalen-1-yl)carbamate] | 0.43 nM | 2.77 nM | – | –
CCCCc1ccc(-c2ccc3c(c2)CCC(C)(C)[C@H]3NC(=O)O[C@@H]2CN3CCC2CC3)cc1 [Example 142, (S)-quinuclidin-3-yl((R)-6-(4-butylphenyl)-2,2-dimethyl-1,2,3,4-tetrahydronaphthalen-1-yl) carbamate] | – | – | 0.23 nM | 1.4 nM
CCOc1ccc(-c2ccc3c(c2)CCC(C)(C)[C@H]3NC(=O)O[C@@H]2CN3CCC2CC3)cc1 [Example 143, (S)-quinuclidin-3-yl((R)-6-(4-ethoxyphenyl)-2,2-dimethyl-1,2,3,4-tetrahydronaphthalen-1-yl) carbamate] | – | – | 0.33 nM | 4.2 nM
